The compounds below were run against T1, human kinase Mps-1 (Homo sapiens, UniProt P33981) (assay: Mps-1 kinase assay (HTRF)).
T1 construct: N-terminally GST-tagged human full length recombinant Mps-1 kinase; GST (N); purchased Invitrogen, Karslruhe, Germany PV4071
T1 sequence (P33981 1-857): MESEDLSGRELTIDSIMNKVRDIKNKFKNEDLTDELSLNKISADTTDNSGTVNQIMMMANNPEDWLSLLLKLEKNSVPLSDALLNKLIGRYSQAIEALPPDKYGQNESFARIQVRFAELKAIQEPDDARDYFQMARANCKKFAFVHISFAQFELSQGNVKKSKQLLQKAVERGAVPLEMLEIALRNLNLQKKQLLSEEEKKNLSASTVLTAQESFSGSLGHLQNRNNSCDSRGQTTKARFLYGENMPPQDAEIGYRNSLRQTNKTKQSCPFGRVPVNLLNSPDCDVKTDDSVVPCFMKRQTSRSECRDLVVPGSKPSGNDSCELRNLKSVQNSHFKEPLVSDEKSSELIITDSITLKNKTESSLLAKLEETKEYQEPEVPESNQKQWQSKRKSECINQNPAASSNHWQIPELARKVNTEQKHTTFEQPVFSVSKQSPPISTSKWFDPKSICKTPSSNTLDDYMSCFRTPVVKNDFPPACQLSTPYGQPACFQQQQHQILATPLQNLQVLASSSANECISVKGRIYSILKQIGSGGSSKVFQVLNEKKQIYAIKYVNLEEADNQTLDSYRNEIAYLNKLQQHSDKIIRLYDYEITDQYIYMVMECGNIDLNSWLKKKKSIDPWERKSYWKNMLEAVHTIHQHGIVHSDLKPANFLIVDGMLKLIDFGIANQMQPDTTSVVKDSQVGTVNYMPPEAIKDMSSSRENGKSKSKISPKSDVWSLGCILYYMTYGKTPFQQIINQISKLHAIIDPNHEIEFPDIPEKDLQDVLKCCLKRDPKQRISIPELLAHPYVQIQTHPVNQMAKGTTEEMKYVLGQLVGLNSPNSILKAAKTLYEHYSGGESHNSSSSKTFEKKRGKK
Type: biochemical
Procedure: The human kinase Mps-1 phosphorylates a biotinylated substrate peptide. Detection of the phosphorylated product is achieved by homogenous time-resolved fluorescence resonance energy transfer (HTRF) from Europium-labelled anti-phospho-Serine/Threonine antibody as donor to streptavidin labelled with cross-linked allophycocyanin (SA-XLent) as acceptor. Compounds are tested for their inhibition of the kinase activity.
N-terminally GST-tagged human full length recombinant Mps-1 kinase (purchased from Invitrogen, Karslruhe, Germany, cat. no PV4071) was used. As substrate for the kinase reaction a biotinylated peptide of the amino-acid sequence […] (C-terminus in amide form, purchased from Biosynthan GmbH, Berlin) was used.
The concentration of Mps-1 in the assay was adjusted to the activity of the enzyme lot and was chosen appropriate to have the assay in the linear range, typical enzyme concentrations were in the range of about 1 nM (final conc. in the 5 μl assay volume).
The resulting mixture was incubated 1 h at 22° C. to allow the binding of the phosphorylated peptide to the anti-phospho(Ser/Thr)-Europium-antibody. Subsequently the amount of phosphorylated substrate was evaluated by measurement of the resonance energy transfer from the Europium-labelled anti-phospho(Ser/Thr) antibody to the Streptavidin-XLent.

SMILES | IC50
N#Cc1ccc(-c2ccc3nc(Nc4ccccc4C#N)nn3c2)cc1 [Example 3.20, 2-{[6-(4-cyanophenyl)[1,2,4]triazolo[1,5-a]pyridin-2-yl]amino}benzonitrile] | 1500 nM
N#Cc1ccccc1Nc1nc2ccc(-c3cccc(C(=O)NCCC(F)(F)F)c3F)cn2n1 [Example 11.067, 3-{2-[(2-cyanophenyl)amino][1,2,4]triazolo[1,5-a]pyridin-6-yl}-2-fluoro-N-(3,3,3-trifluoropropyl)benzamide] | 23.9 nM
COc1cc(C(=O)N(C)CCN(C)C(C)=O)ccc1Nc1nc2ccc(-c3ccc(C(=O)NCC(F)(F)F)cc3)cn2n1 [Example 11.020, N-{2-[acetyl(methyl)amino]ethyl}-3-methoxy-N-methyl-4-[(6-{4-[(2,2,2-trifluoroethyl)carbamoyl]phenyl}[1,2,4]triazolo [1,5-a]pyridin-2-yl)amino]benzamide] | 3.05 nM
CCNC(=O)c1ccc(Nc2nc3ccc(-c4cccc(C(=O)NCC(C)(C)C)c4)cn3n2)c(OCC)c1 [Example 11.087, 4-[(6-{3-[(2,2-dimethylpropyl)carbamoyl]phenyl}[1,2,4]tria-zolo[1,5-a]pyridin-2-yl)amino]-3-ethoxy-N-ethylbenzamide] | ≤ 1 nM
COc1ccccc1-c1ccc2nc(Nc3ccccc3C#N)nn2c1 [Example 3.13, 2-{[6-(2 methoxyphenyl)[1,2,4]triazolo[1,5-a]pyridin-2-yl]amino}benzonitrile] | 1200 nM
CCN(CC)C(=O)c1ccc(Nc2nc3ccc(-c4cc(C)c(O)c(C)c4)cn3n2)c(OC)c1 [Example 1.16, N,N-Diethyl-4-[6-(4-hydroxy-3,5-dimethyl-phenyl)-[1,2,4]triazolo[1,5-a]pyridin-2-ylamino]-3-methoxy-benzamide] | 280 nM
COc1ccccc1Nc1nc2ccc(-c3cccc(NS(C)(=O)=O)c3)cn2n1 [Example 8.3, N-(3-{2-[(2-methoxyphenyl)amino][1,2,4]triazolo[1,5-a]pyridin-6-yl}phenyl)methanesulfonamide] | 190 nM
CC(C)(C)OC(=O)c1ccc(-c2ccc3nc(Nc4ccccc4C#N)nn3c2)cc1 [Example 11.013, tert-butyl 4-{2-[(2-cyanophenyl)amino][1,2,4]triazolo[1,5-a]pyridin-6-yl}benzoate] | 1060 nM
COc1cc(C(=O)NC(C)(C)C)ccc1Nc1nc2ccc(-c3ccc(NC(=O)CC(F)(F)F)cc3)cn2n1 [Example 11.101, N-tert-butyl-3-methoxy-4-[(6-{4-[(3,3,3-trifluoropropanoyl)amino]phenyl}[1,2,4]triazolo [1,5-a]pyridin-2-yl)amino]benzamide] | 2.53 nM
COc1ccccc1Nc1nc2ccc(-c3ccc(NC(C)=O)cc3)cn2n1 [Example 5.3, N-(4-{2-[(2-methoxyphenyl)amino][1,2,4]triazolo[1,5-a]pyridin-6-yl}phenyl)acetamide] | 76 nM
COc1ccc(F)cc1Nc1nc2ccc(-c3cccc(NC(C)=O)c3)cn2n1 [Example 2.2, N-(3-{2-[(5-fluoro-2-methoxyphenyl)amino] [1,2,4]triazolo[1,5-a]pyridin-6-yl}phenyl)acetamide] | 470 nM
CCOc1cc(C(=O)NC(C)(C)CO)ccc1Nc1nc2ccc(-c3ccc(C(=O)NCC(C)C)cc3)cn2n1 [Example 11.035, 3-ethoxy-N-(1-hydroxy-2-methylpropan-2-yl)-4-[(6-{4-[(2-methylpropyl)carbamoyl]phenyl}[1,2,4]triazolo [1,5-a]pyridin-2-yl)amino]benzamide] | 1.92 nM
Cc1cc(O)ccc1-c1ccc2nc(Nc3ccccc3C#N)nn2c1 [Example 3.9, 2-{[6-(4-hydroxy-2-methylphenyl)[1,2,4]triazolo[1,5-a]pyridin-2-yl]amino}benzonitrile] | 740 nM
CCNC(=O)c1ccc(Nc2nc3ccc(-c4ccc(C(=O)NCC(F)(F)F)cc4)cn3n2)c(OCC)c1 [Example 11.031, 3-ethoxy-N-ethyl-4-[(6-{4-[(2,2,2-trifluoroethyl)carbamoyl]phenyl}[1,2,4]triazolo [1,5-a]pyridin-2-yl)amino]benzamide] | ≤ 1 nM
COc1cc(C(=O)NCC(C)(C)O)ccc1Nc1nc2ccc(-c3ccc(C(=O)NCCC(F)(F)F)cc3)cn2n1 [Example 11.025, N-(2-hydroxy-2-methylpropyl)-3-methoxy-4-[(6-{4-[(3,3,3-trifluoropropyl)carbamoyl]phenyl}[1,2,4]tria-zolo[1,5-a]pyridin-2-yl)amino]benzamide] | 7.31 nM
CC(C)(CO)NC(=O)c1ccc(Nc2nc3ccc(-c4cccc(C(=O)NCC(F)(F)F)c4)cn3n2)c(OCC(F)(F)F)c1 [Example 11.094, N-(1-hydroxy-2-methylpropan-2-yl)-3-(2,2,2-trifluoroethoxy)-4-[(6-{3-[(2,2,2-trifluoroethyl)carbamoyl]phenyl}[1,2,4]triazolo [1,5-a]pyridin-2-yl)amino]benzamide] | ≤ 1 nM
N#Cc1ccccc1Nc1nc2ccc(-c3ccc(C(=O)O)cc3)cn2n1 [Example 11.009, 4-{2-[(2-cyanophenyl)amino][1,2,4]triazolo[1,5-a]pyridin-6-yl}benzoic acid] | 1550 nM
CC(C)(C)CCC(=O)Nc1ccc(-c2ccc3nc(Nc4ccccc4C#N)nn3c2)cc1 [Example 11.100, N-(4-{2-[(2-cyanophenyl)amino][1,2,4]triazolo[1,5-a]pyridin-6-yl}phenyl)-4,4-dimethylpentanamide] | 8.08 nM
CCOc1cc(C(=O)NCCO)ccc1Nc1nc2ccc(-c3ccc(C(=O)NCC(F)(F)F)cc3)cn2n1 [Example 11.028, 3-ethoxy-N-(2-hydroxyethyl)-4-[(6-{4-[(2,2,2-trifluoroethyl)carbamoyl]phenyl}[1,2,4]triazolo [1,5-a]pyridin-2-yl)amino]benzamide] | ≤ 1 nM
CCNC(=O)c1ccc(Nc2nc3ccc(-c4ccc(C(=O)NCC(F)(F)F)cc4)cn3n2)c(OC)c1 [Example 11.006, N-ethyl-3-methoxy-4-[(6-{4-[(2,2,2-trifluoroethyl)carbamoyl]phenyl}[1,2,4]triazolo[1,5-a]pyridin-2-yl)amino]benzamide] | ≤ 1 nM
N#Cc1ccccc1Nc1nc2ccc(-c3ccc4cc[nH]c4c3)cn2n1 [Example 3.6, 2-{[6-(1H-indol-6-yl)[1,2,4]triazolo[1,5-a]pyridin-2-yl]amino}benzonitrile] | 940 nM
CNS(=O)(=O)c1cccc(-c2ccc3nc(Nc4cccc(F)c4C#N)nn3c2)c1 [Example 11.098, 3-{2-[(2-cyano-3-fluorophenyl)amino][1,2,4]triazolo[1,5-a]pyridin-6-yl}-N-methylbenzenesulfonamide] | 97.6 nM
CCOc1ncccc1Nc1nc2ccc(-c3ccc(C(=O)NCC(F)(F)F)cc3)cn2n1 [Example 11.003, 4-{2-[(2-ethoxypyridin-3-yl)amino][1,2,4]triazolo[1,5-a]pyridin-6-yl}-N-(2,2,2-trifluoroethyl)benzamide] | 3.74 nM
N#Cc1ccccc1Nc1nc2ccc(-c3cccc(C(=O)NCC(F)(F)F)c3F)cn2n1 [Example 11.061, 3-{2-[(2-cyanophenyl)amino][1,2,4]triazolo[1,5-a]pyridin-6-yl}-2-fluoro-N-(2,2,2-trifluoroethyl)benzamide] | 12.9 nM
COc1cc(C(=O)NC(C)(C)CO)ccc1Nc1nc2ccc(-c3ccc(C(=O)NCC(F)(F)F)c(C)c3)cn2n1 [Example 11.024, 4-[2-({4-[(1-hydroxy-2-methylpropan-2-yl)carbamoyl]-2-methoxyphenyl}amino)[1,2,4]triazolo[1,5-a]pyridin-6-yl]-2-methyl-N-(2,2,2-trifluoroethyl)benzamide] | 3.84 nM
N#Cc1ccccc1Nc1nc2ccc(-c3ccc(C(N)=O)cc3)cn2n1 [Example 3.7, 4-{2-[(2-cyanophenyl)amino] [1,2,4]triazolo[1,5-a]pyridin-6-yl}benzamide] | 140 nM
CC(C)(C)CNC(=O)c1cc(F)cc(-c2ccc3nc(Nc4ccccc4C#N)nn3c2)c1 [Example 11.056, 3-{2-[(2-cyanophenyl)amino][1,2,4]triazolo[1,5-a]pyridin-6-yl}-N-(2,2-dimethylpropyl)-5-fluorobenzamide] | 9.21 nM
